From US20250313563A1, “GLYCOGEN SYNTHASE KINASE 3 INHIBITORS AND USES THEREOF” (The Broad Institute, Inc., priority 2022, published 2025)
Like-named read-outs stand apart in the source and are kept apart here. Blank lines part the entries; values can stand above or below the compound they belong to.

Key:
[1] = molecular target: GSK3α (GST-full length GSK3α) (Homo sapiens (Human), UniProt P49840); experiment: GSK3α TR-FRET kinase assay; type: biochemical
In short: (§1)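 In this time-resolved FRET format, kinase reactions contained 200 nM biotinylated, S645-phosphorylated glycogen synthase 631-650 peptide and either isoform-specific ATP (2 μM GSK3b, 4 μM GSK3α) or 1 mM ATP. They were quenched with EDTA after 100 min at ambient temperature. Inhibition curves gave IC50 values.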

[2] = molecular target: GSK3b (GST-full length GSK3b) (Homo sapiens (Human), UniProt P49841); experiment: GSK3b TR-FRET kinase assay; type: biochemical
In short: as §1

[3] = 1 nM GSK3α, 4 μM ATP, 30 minute preincubation, geometric mean, read-out: GSK3-A TR-FRET BIOCHEMICAL (TR-FRET), GMean, IC50
[4] = 1 nM GSK3b, 2 μM ATP, 30 minute preincubation, geometric mean, read-out: GSK3-B TR-FRET BIOCHEMICAL (TR-FRET), GMean, IC50
[5] = 1 nM GSK3α, 4 μM ATP, 30 minute preincubation, Table 16, read-out: GSK3-A TR-FRET BIOCHEMICAL (TR-FRET)
[6] = 1 nM GSK3b, 2 μM ATP, 30 minute preincubation, Table 16, read-out: GSK3-B TR-FRET BIOCHEMICAL (TR-FRET)
[7] = 1 nM GSK3α, 4 μM ATP, 30 minute preincubation, Table 16, read-out: GSK3-A TR-FRET BIOCHEMICAL (TR-FRET), IC50
[8] = 1 nM GSK3b, 2 μM ATP, 30 minute preincubation, Table 16, read-out: GSK3-B TR-FRET BIOCHEMICAL (TR-FRET), IC50
[9] = GSK3-A (TR-FRET 1 mM ATP), GMean, IC50, 1 mM ATP, geometric mean
[10] = GSK3-B (TR-FRET 1 mM ATP), GMean, IC50, 1 mM ATP, geometric mean
[11] = read-out: GSK3-A (TR-FRET 1 mM ATP), GMean, IC50, 1 mM ATP, geometric mean
[12] = read-out: GSK3-B (TR-FRET 1 mM ATP), GMean, IC50, 1 mM ATP, geometric mean
[13] = 1 nM GSK3α, 4 μM ATP, 30 minute preincubation, read-out: GSK3-A TR-FRET BIOCHEMICAL (TR-FRET), IC50
[14] = 1 nM GSK3b, 2 μM ATP, 30 minute preincubation, read-out: GSK3-B TR-FRET BIOCHEMICAL (TR-FRET), IC50

Sequence of GSK3b (GST-full length GSK3b) (P49841 whole entry): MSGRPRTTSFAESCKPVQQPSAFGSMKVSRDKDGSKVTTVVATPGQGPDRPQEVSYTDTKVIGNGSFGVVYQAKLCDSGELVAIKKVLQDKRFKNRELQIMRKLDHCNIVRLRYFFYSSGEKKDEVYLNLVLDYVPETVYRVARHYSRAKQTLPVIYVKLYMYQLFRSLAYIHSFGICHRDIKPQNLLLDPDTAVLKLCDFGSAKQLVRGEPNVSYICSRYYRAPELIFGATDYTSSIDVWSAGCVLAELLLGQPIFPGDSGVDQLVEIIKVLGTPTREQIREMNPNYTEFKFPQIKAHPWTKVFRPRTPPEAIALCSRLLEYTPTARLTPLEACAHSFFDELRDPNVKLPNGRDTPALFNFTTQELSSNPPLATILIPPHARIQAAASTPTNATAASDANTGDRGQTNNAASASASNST
Sequence of GSK3α (GST-full length GSK3α) (P49840 whole entry, canonical isoform): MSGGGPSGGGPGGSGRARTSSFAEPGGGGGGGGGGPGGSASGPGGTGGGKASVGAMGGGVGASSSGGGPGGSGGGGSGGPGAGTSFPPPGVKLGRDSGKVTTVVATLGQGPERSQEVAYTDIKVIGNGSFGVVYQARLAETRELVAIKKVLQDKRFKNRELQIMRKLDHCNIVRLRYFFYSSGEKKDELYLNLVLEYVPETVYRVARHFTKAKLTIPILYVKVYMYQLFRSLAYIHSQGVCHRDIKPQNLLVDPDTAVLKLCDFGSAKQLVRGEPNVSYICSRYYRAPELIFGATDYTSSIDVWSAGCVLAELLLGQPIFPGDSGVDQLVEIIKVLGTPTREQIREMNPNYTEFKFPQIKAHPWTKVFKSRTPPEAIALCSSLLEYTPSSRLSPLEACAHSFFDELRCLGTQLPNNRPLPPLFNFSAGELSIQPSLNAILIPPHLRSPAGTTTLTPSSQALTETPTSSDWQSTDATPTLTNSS

Structure (SMILES): CCC1(c2cccc(-c3ccnc4cc(OC)ccc34)c2)C2=C(CC(C)(C)NC2=O)Nc2n[nH]cc21 (stereo not drawn) [Compound 948661]
IC50 [1, 3]: ≤ 0.1 µM | IC50 [2, 4]: 0.1 to 1 µM

Structure (SMILES): CC1(C)CC(=O)C2=C(C1)Nc1n[nH]cc1C21CN(c2ccccc2)C1 [Compound 948298]
IC50 [1, 5]: ≤ 0.1 µM | IC50 [2, 6]: ≤ 0.1 µM

Structure (SMILES): CCC1(c2cccc(-c3ccnc(C)c3)c2)C2=C(CC(C)(C)NC2=O)Nc2n[nH]c(C(F)(F)F)c21 (stereo not drawn) [Compound 947858]
IC50 [1, 3]: ≤ 0.1 µM | IC50 [2, 4]: ≤ 0.1 µM

Structure (SMILES): CC[C@@]1(c2cccc(S(=O)(=O)C3CC3)c2)C2=C(CC(C)(C)N(C)C2=O)Nc2n[nH]cc21 [Compound 949184]
IC50 [1, 7]: 1 to 5 µM | IC50 [2, 8]: > 5 µM

Structure (SMILES): Cn1cc(S(=O)(=O)N2CC[C@]3(C2)C2=C(CC(C)(C)CC2=O)Nc2n[nH]cc23)cn1 [Compound 951725]
IC50 [1, 5]: ≤ 0.1 µM | IC50 [1, 9]: 0.1 to 1 µM | IC50 [2, 6]: ≤ 0.1 µM | IC50 [2, 10]: 1 to 5 µM

Structure (SMILES): Cn1ccc(S(=O)(=O)N2CC[C@@]3(C2)C2=C(CC(C)(C)CC2=O)Nc2n[nH]cc23)n1 [Compound 945714]
IC50 [1, 5]: ≤ 0.1 µM | IC50 [2, 6]: ≤ 0.1 µM

Structure (SMILES): CC1(C)CC(=O)C2=C(C1)Nc1n[nH]cc1[C@@]2(C)c1cc(C(F)(F)F)ccc1F [Compound 816797]
IC50 [1, 3]: 1 to 5 µM | IC50 [2, 4]: > 5 µM

Structure (SMILES): CCC1(c2cccc(-c3cn(C)nc3C)c2)C2=C(CC(C)(C)CC2=O)Nc2n[nH]c(C)c21 (stereo not drawn) [Compound 913034]
IC50 [1, 7]: 1 to 5 µM | IC50 [2, 8]: > 5 µM

Structure (SMILES): CN1CC2(C3=C(CC(C)(C)CC3=O)Nc3n[nH]c(CC(C)(C)C)c32)c2ccccc21 (stereo not drawn) [Compound 125979]
IC50 [1, 11]: > 5 µM | IC50 [2, 12]: 1 to 5 µM

Structure (SMILES): Cc1ccc(C(=O)N2CC3(C2)CC2(CO3)C3=C(CC(C)(C)CC3=O)Nc3n[nH]cc32)cc1C (stereo not drawn) [Compound 947286]
IC50 [1, 13]: ≤ 0.1 µM | IC50 [2, 14]: ≤ 0.1 µM

Structure (SMILES): CCC1(c2cccc(-c3ccnn3C)c2)C2=C(CC3(CCOCC3)NC2=O)Nc2n[nH]cc21 (stereo not drawn) [Compound 948516]
IC50 [1, 3]: ≤ 0.1 µM | IC50 [2, 4]: 0.1 to 1 µM

Structure (SMILES): Cc1cccc2c1CC[C@@]21C2=C(CC(C)(C)CC2=O)Nc2n[nH]cc21 [Compound 913137]
IC50 [1, 7]: > 5 µM | IC50 [2, 8]: > 5 µM

Structure (SMILES): CCC1(c2cccc(-c3cnn4c3CCCC4)c2)C2=C(CC(C)(C)CC2=O)Nc2n[nH]cc21 (stereo not drawn) [Compound 926836]
IC50 [1, 7]: ≤ 0.1 µM | IC50 [2, 8]: 0.1 to 1 µM

Structure (SMILES): CC1(C)CC(=O)C2=C(C1)Nc1n[nH]cc1C21CCN(S(=O)(=O)C2CCCC2)CC1 [Compound 909206]
IC50 [1, 7]: ≤ 0.1 µM | IC50 [1, 9]: ≤ 0.1 µM | IC50 [2, 8]: ≤ 0.1 µM | IC50 [2, 10]: 0.1 to 1 µM

Structure (SMILES): CC(=O)N1CC[C@]2(C1)C[C@]1(CO2)C2=C(CC(C)(C)CC2=O)Nc2n[nH]cc21 [Compound 948319]
IC50 [1, 13]: ≤ 0.1 µM | IC50 [2, 14]: 0.1 to 1 µM

Structure (SMILES): CCC1(c2cccc(C(F)(F)F)c2)C2=C(Nc3n[nH]cc31)C(C)(C)NC2=O (stereo not drawn) [Compound 912104]
IC50 [1, 5]: ≤ 0.1 µM | IC50 [2, 6]: 0.1 to 1 µM

Structure (SMILES): Cn1cc(S(=O)(=O)N2CCC3(CC2)C2=C(CC(C)(C)CC2=O)Nc2n[nH]cc23)cn1 [Compound 901467]
IC50 [1, 5]: ≤ 0.1 µM | IC50 [1, 9]: 0.1 to 1 µM | IC50 [2, 6]: ≤ 0.1 µM | IC50 [2, 10]: 1 to 5 µM

Structure (SMILES): CC1(C)CC(=O)C2=C(C1)Nc1n[nH]c(Br)c1[C@]21CCc2c(F)cccc21 [Compound 806939]
IC50 [1, 3]: ≤ 0.1 µM | IC50 [2, 4]: ≤ 0.1 µM

Structure (SMILES): CCC1(c2cccc(C(F)(F)F)c2)C2=C(CCN(c3cc(C)n(C)n3)C2=O)Nc2n[nH]cc21 (stereo not drawn) [Compound 950608]
IC50 [1, 7]: 0.1 to 1 µM | IC50 [2, 8]: 1 to 5 µM

Structure (SMILES): CC[C@@]1(c2cccc(-c3ccnc4ccc(OC)cc34)c2)C2=C(CC(C)(C)NC2=O)Nc2n[nH]cc21 [Compound 948518]
IC50 [1, 3]: > 5 µM | IC50 [2, 4]: > 5 µM

Structure (SMILES): CC[C@]1(c2cccc(-c3cnn(C(C)(C)C)c3)c2)C2=C(CC(C)(C)NC2=O)Nc2n[nH]cc21 [Compound 949112]
IC50 [1, 3]: ≤ 0.1 µM | IC50 [1, 11]: > 5 µM | IC50 [2, 4]: 0.1 to 1 µM | IC50 [2, 12]: > 5 µM

Structure (SMILES): CCC1(c2cccc(-c3cnn(Cc4ccc(C(F)(F)F)cc4)c3)c2)C2=C(CC(C)(C)NC2=O)Nc2n[nH]cc21 (stereo not drawn) [Compound 951849]
IC50 [1, 7]: ≤ 0.1 µM | IC50 [2, 8]: 0.1 to 1 µM

Structure (SMILES): CC[C@@]1(c2cccc(C(F)(F)F)c2)C2=C(CC3(CCC3)NC2=O)Nc2n[nH]cc21 [Compound 914308]
IC50 [1, 13]: ≤ 0.1 µM | IC50 [1, 11]: 0.1 to 1 µM | IC50 [2, 14]: ≤ 0.1 µM | IC50 [2, 12]: 1 to 5 µM

Structure (SMILES): CC[C@@]1(c2cccc(-c3ccnc(C)c3Cl)c2)C2=C(CC(C)(C)NC2=O)Nc2n[nH]cc21 [Compound 948369]
IC50 [1, 3]: > 5 µM | IC50 [2, 4]: > 5 µM

Structure (SMILES): CCC1(c2cccc(-c3cnn(C)c3)c2)C2=C(CC(C)(C)NC2=O)Nc2n[nH]c(C)c21 (stereo not drawn) [Compound 945614]
IC50 [1, 13]: ≤ 0.1 µM | IC50 [1, 11]: 0.1 to 1 µM | IC50 [2, 14]: 0.1 to 1 µM | IC50 [2, 12]: 1 to 5 µM

Structure (SMILES): CCC1(c2cccc(S(=O)(=O)C(C)C)c2)C2=C(CC(C)(C)NC2=O)Nc2n[nH]cc21 (stereo not drawn) [Compound 945464]
IC50 [1, 13]: ≤ 0.1 µM | IC50 [2, 14]: ≤ 0.1 µM

Continued, values first:

IC50 [1, 5]: > 5 µM | IC50 [2, 6]: > 5 µM
Structure (SMILES): CC[C@@]1(c2ccccc2)C2=C(C[C@]3(CCNC3=O)CC2=O)Nc2n[nH]cc21 [Compound 950164]

IC50 [1, 5]: ≤ 0.1 µM | IC50 [1, 11]: ≤ 0.1 µM | IC50 [2, 6]: ≤ 0.1 µM | IC50 [2, 12]: 0.1 to 1 µM
Structure (SMILES): CCC1(c2cccc(N(C)c3nccc(C)n3)c2)C2=C(CC(C)(C)CC2=O)Nc2n[nH]cc21 (stereo not drawn) [Compound 945328]

IC50 [1, 5]: 1 to 5 µM | IC50 [2, 6]: > 5 µM
Structure (SMILES): CC[C@]1(c2cccc(-c3cnc(C)n3C)c2)C2=C(CC(C)(C)CC2=O)Nc2n[nH]cc21 [Compound 945612]

IC50 [1, 3]: 0.1 to 1 µM | IC50 [2, 4]: > 5 µM
Structure (SMILES): CC[C@]1(c2ccccc2)C2=C(C[C@@H](c3ccccc3)CC2=O)Nc2n[nH]cc21 [Compound 791264]

IC50 [1, 7]: ≤ 0.1 µM | IC50 [2, 8]: 0.1 to 1 µM
Structure (SMILES): CC[C@@]1(c2cccc(N3CCC3(C)C)c2)C2=C(CC(C)(C)CC2=O)Nc2n[nH]cc21 [Compound 913140]

IC50 [1, 7]: ≤ 0.1 µM | IC50 [1, 11]: 1 to 5 µM | IC50 [2, 8]: 0.1 to 1 µM | IC50 [2, 12]: > 5 µM
Structure (SMILES): CC[C@]1(c2cccc(C3CC3)c2)C2=C(CC(C)(C)NC2=O)Nc2n[nH]cc21 [Compound 950828]

IC50 [1, 3]: 0.1 to 1 µM | IC50 [2, 4]: > 5 µM
Structure (SMILES): CC[C@]1(c2ccccc2)C2=C(C[C@H](C)CC2=O)Nc2n[nH]cc21 [Compound 789013]

IC50 [1, 13]: > 5 µM | IC50 [2, 14]: > 5 µM
Structure (SMILES): CC[C@]1(c2cccc(C(F)(F)F)c2)C2=C(C[C@H](C)NC2=O)Nc2n[nH]cc21 [Compound 912099]

IC50 [1, 5]: ≤ 0.1 µM | IC50 [2, 6]: ≤ 0.1 µM
Structure (SMILES): CCC1(c2cccc(S(=O)(=O)C3CCOC3)c2)C2=C(CC(C)(C)CC2=O)Nc2n[nH]cc21 (stereo not drawn) [Compound 944018]

IC50 [1, 3]: ≤ 0.1 µM | IC50 [2, 4]: 0.1 to 1 µM
Structure (SMILES): CCC1(c2cccc(C(F)(F)F)c2)C2=C(CC(C)CC2=O)Nc2n[nH]cc21 (mixture of isomers) [Compound 801397]

IC50 [1, 3]: 0.1 to 1 µM | IC50 [2, 4]: 1 to 5 µM
Structure (SMILES): C[C@H]1CC(=O)C2=C(C1)Nc1n[nH]cc1[C@@]2(C)c1ccccc1 [Compound 789334]

IC50 [1, 7]: ≤ 0.1 µM | IC50 [2, 8]: ≤ 0.1 µM
Structure (SMILES): CCN(c1cccnc1)c1cccc(C2(CC)C3=C(CC(C)(C)CC3=O)Nc3n[nH]cc32)c1 (stereo not drawn) [Compound 885331]

IC50 [1, 5]: 0.1 to 1 µM | IC50 [2, 6]: 0.1 to 1 µM
Structure (SMILES): CC1(C)CC(=O)C2=C(C1)Nc1n[nH]cc1[C@]21C[C@H](OCc2ccccc2)C1 [Compound 909210]

IC50 [1, 5]: 0.1 to 1 µM | IC50 [2, 6]: 1 to 5 µM
Structure (SMILES): CCc1cc(N(C)c2cccc(C3(CC)C4=C(CC(C)(C)CC4=O)Nc4n[nH]cc43)c2)ccn1 (stereo not drawn) [Compound 945600]
